We go through 2 substances from patent publication US5840999A, “Asymmetric benzoxanthene dyes” (The Perkin-Elmer Corporation, priority 1997, dated 1998).

Holding throughout (assay type): physicochemical
Data set [1] is described as follows: Emission spectra of pure dyes (Table II). The conditions noted are these: pure dye isomer 2, room temperature; for λmax Em: 1×TBE buffer pH 8.4, absorbance 0.05 at λmax Abs; for Width at Half Height: emission spectrum in 1×TBE buffer pH 8.4.
Data set [2] is described as follows: Photodecomposition under high intensity white light. The conditions noted are these: pure dye isomer 2, 35° C., 1×TBE buffer pH 8.4, from t1/2 for loss of dye. The procedure: (§1) See FIGS. 1 and 2 for the structures of the dyes referred to in the table. All data are reported for pure dye isomer 2. All emission spectra were recorded in 1×TBE buffer at pH 8.4 in dye solutions having an absorbance of 0.05 at λmax Abs (ca. 1×10^-6 M) at room temperature. Photodecomposition rate was determined for equal volumes of the dyes at initially 1 absorption unit at λmax Abs and run in pairs at equal volumes under equal high intensity white light irradiation at 35° C. in 1×TBE buffer pH 8.4. […] (λmax Abs=0.05).

The nature of data set [3]: Relative brightness at λmax Em with 514 nm excitation. Conditions: pure dye isomer 2, approximately equal concentrations (λmax Abs=0.05). On the procedure:
as §1

Data set [4] in a line: Stability in concentrated NH4OH at 60° C. Conditions: pure dye isomer 2, concentrated ammonia hydroxide, sealed vials, first order fit. The procedure: as §1

In the case of “6-carboxy-4,7,2',4',5',7',-hexachlorofluorescein”, in data set [1], the “λmax Em” value was 550 nm and the “Width at Half Height” value was found to be 32 nm. In addition, the “Relative Photostability” value in data set [2] was 17. Also, the “Relative Brightness” value in data set [3] is listed as 2.4. Besides, the “Stability in NH4OH - t1/2” value in data set [4] worked out at 11 h.

TAMRA: in data set [1], the “λmax Em” value is 577 nm and the “Width at Half Height” value is recorded as 39 nm. Further, the “Relative Brightness” value in data set [3] is 0.9. Moreover, the “Stability in NH4OH - t1/2” value in data set [4] came out at 1.3 h.
